Data from patent US20260262643A1, “HERBICIDAL BENZOXAZINES” (FMC CORPORATION, priority 2022, published 2026).

Tests used:
[1] = test system: kochia; test: Test C preemergence; format: in vivo, Bassia scoparia; settings: preemergence, 0 to 100 scale (0 no effect, 100 complete control)
Outline: (§1)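 Greenhouse herbicide screen, 10-day duration. Test chemicals in solvent/surfactant blend were sprayed onto soil at sowing (pre) or onto 2–10 cm seedlings at one to two leaves (post); injury scored visually against controls, 0 no effect to 100 complete control.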

[2] = test system: horseweed; test: Test C postemergence; format: in vivo, Erigeron canadensis; settings: 10 days
Outline: as §1

[3] = test system: wheat; test: Test C postemergence; format: in vivo, Triticum aestivum; settings: postemergence, 10 days
Outline: as §1

[4] = test system: blackgrass; test: Test C postemergence; format: in vivo, Alopecurus myosuroides; settings: 10 days
Outline: as §1

[5] = test system: wheat; test: Test C preemergence; format: in vivo, Triticum aestivum; settings: preemergence, 0 to 100 scale (0 no effect, 100 complete control)
Outline: as §1

[6] = test system: corn; test: Test C postemergence; format: in vivo, Zea mays; settings: 10 days
Outline: as §1

[7] = test system: foxtail, giant; test: Test C postemergence; format: in vivo, Setaria faberi; settings: 10 days
Outline: as §1

[8] = test system: pigweed, palmer; test: Test C postemergence; format: in vivo, Amaranthus palmeri; settings: postemergence, 10 days
Outline: as §1

[9] = test system: blackgrass; test: Test C preemergence; format: in vivo, Alopecurus myosuroides; settings: 0 to 100 scale (0 no effect, 100 complete control); for Blackgrass plant response rating: preemergence
Outline: as §1

[10] = test system: soybean; test: Test C postemergence; format: in vivo, Glycine max; settings: postemergence, 10 days
Outline: as §1

[11] = test system: soybean; test: Test C preemergence; format: in vivo, Glycine max; settings: preemergence, 0 to 100 scale (0 no effect, 100 complete control)
Outline: as §1

[12] = test system: barnyardgrass; test: Test D flooded paddy test; format: in vivo, Echinochloa crus-galli; settings: 250 g ai/ha, applied to paddy water, visual rating after 13 to 14 days, scale 0 to 100 (0 no effect, 100 complete control)
Outline: (§2)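 Compounds go straight into paddy water over 2-leaf plants in pots flooded to 3 cm. Greenhouse holding lasts 13 to 14 days. Injury is scored by eye against controls from 0 (none) to 100 (complete control).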

[13] = test system: ryegrass, Italian; test: Test C preemergence; format: in vivo, Lolium multiflorum; settings: preemergence, 0 to 100 scale (0 no effect, 100 complete control)
Outline: as §1

[14] = test system: kochia; test: Test C postemergence; format: in vivo, Bassia scoparia; settings: postemergence, 10 days
Outline: as §1

[15] = test system: goosegrass; test: Test C postemergence; format: in vivo, Eleusine indica; settings: 10 days
Source text: (§3) Seeds of plant species selected from barnyardgrass (Echinochloa crusgalli), blackgrass (Alopecurus myosuroides), corn (Zea mays), foxtail, giant (giant foxtail, Setaria faberi), green foxtail (Setaria viridis), goosegrass (Eleusine indica), kochia (Bassia scoparia), oat, wild (wild oat, Avena fatua), pigweed, palmer (palmer amaranth, palmer pigweed, Amaranthus palmeri), Pigweed, Redroot (redroot pigweed, Amaranthus retroflexus), ragweed (common ragweed, Ambrosia artemisiifolia), ryegrass, Italian ([…] ryegrass, Lolium multiflorum), soybean (Glycine max), and wheat (Triticum aestivum) were planted into a blend of loam soil and sand and treated preemergence with a directed soil spray using test chemicals formulated in a non-phytotoxic solvent mixture which included a surfactant. At the same time, plants selected from these crops and weed species and also galium (catchweed bedstraw, Galium aparine) and horseweed (Erigeron canadensis) were planted in pots containing the same blend of loam soil and sand and treated with postemergence applications of test chemicals formulated in the same manner. Plants ranged in height from 2 to 10 cm and were in the one- to two-leaf stage for the postemergence treatment. Treated plants and untreated controls were maintained in a greenhouse for 10 days, after which time all treated plants were compared to untreated controls and visually evaluated for injury. Plant response ratings, summarized in Table C, are based on a 0 to 100 scale where 0 is no effect and 100 is complete control. A dash (-) response means no test result.

[16] = test system: oat, wild; test: Test C preemergence; format: in vivo, Avena fatua; settings: preemergence, 0 to 100 scale (0 no effect, 100 complete control)
Outline: as §1

[17] = test system: ryegrass, Italian; test: Test C postemergence; format: in vivo, Lolium multiflorum; settings: postemergence, 10 days
Outline: as §1

[18] = test system: goosegrass; test: Test C preemergence; format: in vivo, Eleusine indica; settings: preemergence, 0 to 100 scale (0 no effect, 100 complete control)
Source text: as §3

[19] = test system: ducksalad; test: Test D flooded paddy test; format: in vivo, Heteranthera limosa; settings: 250 g ai/ha, applied to paddy water, visual rating after 13 to 14 days, scale 0 to 100 (0 no effect, 100 complete control)
Outline: as §2

[20] = test system: sedge, umbrella; test: Test D flooded paddy test; format: in vivo, Cyperus difformis; settings: 250 g ai/ha, applied to paddy water, visual rating after 13 to 14 days, scale 0 to 100 (0 no effect, 100 complete control)
Outline: as §2

[21] = test system: pigweed, palmer; test: Test C preemergence; format: in vivo, Amaranthus palmeri; settings: preemergence, 0 to 100 scale (0 no effect, 100 complete control)
Outline: as §1

[22] = test system: galium; test: Test C postemergence; format: in vivo, Galium aparine; settings: 10 days
Outline: as §1

[23] = test system: ragweed; test: Test C postemergence; format: in vivo, Ambrosia artemisiifolia; settings: postemergence, 10 days
Outline: as §1

[24] = test system: foxtail, giant; test: Test C preemergence; format: in vivo, Setaria faberi; settings: preemergence, 0 to 100 scale (0 no effect, 100 complete control)
Outline: as §1

[25] = test system: oat, wild; test: Test C postemergence; format: in vivo, Avena fatua; settings: postemergence, 10 days
Outline: as §1

[26] = test system: corn; test: Test C preemergence; format: in vivo, Zea mays; settings: preemergence, 0 to 100 scale (0 no effect, 100 complete control)
Outline: as §1

[27] = test system: ragweed; test: Test C preemergence; format: in vivo, Ambrosia artemisiifolia; settings: preemergence, 0 to 100 scale (0 no effect, 100 complete control)
Outline: as §1

[28] = test system: rice; test: Test D flooded paddy test; format: in vivo, Oryza sativa; settings: 250 g ai/ha, applied to paddy water, visual rating after 13 to 14 days, scale 0 to 100 (0 no effect, 100 complete control)
Outline: as §2

[29] = 125 g ai/ha, postemergence, 0 to 100 scale, 0 no effect, 100 complete control
[30] = Postemergence, 500 g ai/ha, visual 0 to 100 scale (0 no effect, 100 complete control)
[31] = 125 g ai/ha, 0 to 100 scale, 0 no effect, 100 complete control
[32] = 500 g ai/ha, 0 to 100 scale (0 no effect, 100 complete control)
[33] = 500 g ai/ha, postemergence, 0 to 100 scale (0 no effect, 100 complete control)

Compound: Cc1cccc2c1O[C@@H](C)CN2C(=O)c1cccc(-n2nccn2)c1 [Compound 282]
- Kochia plant response rating ([1]; 500 g ai/ha): 0
- Kochia plant response rating ([1]; Test C, 125 g ai/ha): 0
- Plant response rating, Horseweed [2, 29]: 0
- Plant response rating, Horseweed [2, 30]: 0
- Plant response rating, Wheat [3, 31]: 0
- Plant response rating, Blackgrass [4, 29]: 0
- Plant response rating, Blackgrass [4, 30]: 0
- Wheat plant response rating ([5]; 500 g ai/ha): 0
- Wheat plant response rating ([5]; Test C, 125 g ai/ha): 0
- Plant response rating, Corn [6, 29]: 0
- Plant response rating, Corn [6, 30]: 0
- Plant response rating, Foxtail, Giant [7, 29]: 0
- Plant response rating, Foxtail, Giant [7, 30]: 0
- Plant response rating, Pigweed, Palmer [8, 31]: 0
- Plant response rating, Blackgrass ([9]; Preemergence, 500 g ai/ha, visual rating after 10 days): 0
- Blackgrass plant response rating ([9]; Test C, 125 g ai/ha): 0
- Plant response rating, Soybean [10, 31]: 0
- Soybean plant response rating ([11]; 500 g ai/ha): 0
- Soybean plant response rating ([11]; Test C, 125 g ai/ha): 0
- Plant response rating, Barnyardgrass (Flood) [12]: 0
- Ryegrass, Italian plant response rating ([13]; 500 g ai/ha): 0
- Ryegrass, Italian plant response rating ([13]; Test C, 125 g ai/ha): 0
- Plant response rating, Kochia [14, 31]: 0
- Plant response rating, Goosegrass [15, 29]: 0
- Plant response rating, Goosegrass [15, 30]: 0
- Oat, Wild plant response rating ([16]; 500 g ai/ha): 0
- Oat, Wild plant response rating ([16]; Test C, 125 g ai/ha): 0
- Plant response rating, Ryegrass, Italian [17, 31]: 0
- Goosegrass plant response rating ([18]; 500 g ai/ha): 0
- Goosegrass plant response rating ([18]; Test C, 125 g ai/ha): 0
- Plant response rating, Ducksalad (Flood) [19]: 0
- Plant response rating, Sedge, Umbrella (Flood) [20]: 0
- Pigweed, Palmer plant response rating ([21]; 500 g ai/ha): 0
- Pigweed, Palmer plant response rating ([21]; Test C, 125 g ai/ha): 0
- Plant response rating, Galium [22, 29]: 0
- Plant response rating, Galium [22, 30]: 0
- Plant response rating, Ragweed [23, 31]: 0
- Foxtail, Giant plant response rating ([24]; 500 g ai/ha): 0
- Foxtail, Giant plant response rating ([24]; Test C, 125 g ai/ha): 0
- Plant response rating, Oat, Wild [25, 31]: 0
- Corn plant response rating ([26]; 500 g ai/ha): 0
- Corn plant response rating ([26]; Test C, 125 g ai/ha): 0
- Ragweed plant response rating ([27]; 500 g ai/ha): 0
- Ragweed plant response rating ([27]; Test C, 125 g ai/ha): 0
- Plant response rating, Rice (Flood) [28]: 0

Compound: Cc1cccc2c1O[C@@H](C)CN2C(=O)c1cccc(-n2cnc(-c3ccccc3)n2)c1 [Compound 283]
- Kochia plant response rating ([1]; 500 g ai/ha): 50
- Kochia plant response rating ([1]; Test C, 125 g ai/ha): 20
- Plant response rating, Wheat [3, 31]: 10
- Plant response rating, Wheat [3, 32]: 10
- Plant response rating, Blackgrass [4, 29]: 10
- Plant response rating, Blackgrass [4, 33]: 40
- Wheat plant response rating ([5]; 500 g ai/ha): 10
- Wheat plant response rating ([5]; Test C, 125 g ai/ha): 0
- Plant response rating, Corn [6, 29]: 20
- Plant response rating, Corn [6, 33]: 20
- Plant response rating, Foxtail, Giant [7, 29]: 20
- Plant response rating, Foxtail, Giant [7, 33]: 90
- Plant response rating, Pigweed, Palmer [8, 31]: 60
- Plant response rating, Pigweed, Palmer [8, 32]: 80
- Blackgrass plant response rating ([9]; 500 g ai/ha): 40
- Blackgrass plant response rating ([9]; Test C, 125 g ai/ha): 40
- Plant response rating, Soybean [10, 31]: 90
- Plant response rating, Soybean [10, 32]: 90
- Soybean plant response rating ([11]; 500 g ai/ha): 30
- Soybean plant response rating ([11]; Test C, 125 g ai/ha): 0
- Plant response rating, Barnyardgrass (Flood) [12]: 0
- Ryegrass, Italian plant response rating ([13]; 500 g ai/ha): 100
- Ryegrass, Italian plant response rating ([13]; Test C, 125 g ai/ha): 70
- Plant response rating, Kochia [14, 31]: 70
- Plant response rating, Kochia [14, 32]: 80
- Plant response rating, Goosegrass [15, 29]: 10
- Plant response rating, Goosegrass [15, 33]: 40
- Oat, Wild plant response rating ([16]; 500 g ai/ha): 10
- Oat, Wild plant response rating ([16]; Test C, 125 g ai/ha): 20
- Plant response rating, Ryegrass, Italian [17, 31]: 20
- Plant response rating, Ryegrass, Italian [17, 32]: 50
- Goosegrass plant response rating ([18]; 500 g ai/ha): 100
- Goosegrass plant response rating ([18]; Test C, 125 g ai/ha): 80
- Plant response rating, Ducksalad (Flood) [19]: 0
- Plant response rating, Sedge, Umbrella (Flood) [20]: 0
- Pigweed, Palmer plant response rating ([21]; 500 g ai/ha): 100
- Pigweed, Palmer plant response rating ([21]; Test C, 125 g ai/ha): 30
- Plant response rating, Galium [22, 29]: 50
- Plant response rating, Galium [22, 33]: 80
- Plant response rating, Ragweed [23, 31]: 10
- Plant response rating, Ragweed [23, 32]: 50
- Foxtail, Giant plant response rating ([24]; 500 g ai/ha): 90
- Foxtail, Giant plant response rating ([24]; Test C, 125 g ai/ha): 60
- Plant response rating, Oat, Wild [25, 31]: 10
- Plant response rating, Oat, Wild [25, 32]: 10
- Corn plant response rating ([26]; 500 g ai/ha): 0
- Corn plant response rating ([26]; Test C, 125 g ai/ha): 0
- Ragweed plant response rating ([27]; 500 g ai/ha): 0
- Ragweed plant response rating ([27]; Test C, 125 g ai/ha): 0
- Plant response rating, Rice (Flood) [28]: 0
